# Results as given in US8455688B2, “HDAC inhibitors” (Lixte Biotechnology, Inc., priority 2007, dated 2013).
# Read-outs that look alike come from different tables or passages of the source.
# Key:
# T. rubrum = experiment: Broth dilution antifungal susceptibility testing, T. rubrum; format: cell-based, Trichophyton rubrum; conditions: 80% inhibition; for MIC: Trichophyton rubrum, read-out: minimum inhibitory concentration (MIC)
# Method: (§1) A total of 23 isolates were tested to include 3 Candida albicans, 3 Candida glabrata, 3 Cryptococcus neoformans, 3 Aspergillus fumigatus, 3 Rhizopus oryzae, 3, Fusarium solani, 3 Pseudallescheria boydii, and 2 […]. All isolates were clinical isolates submitted to the Fungus Testing Laboratory for evaluation. Antifungal susceptibility testing was accomplished according to the methods outlined in the National Committee for Clinical Laboratory Standards, M-27A2, Reference Method for Broth Dilution Antifungal Susceptibility Testing of Yeasts; Approved Standard, and M38-A “Reference Method for Broth Dilution Antifungal Susceptibility Testing of Conidium-Forming Filamentous Fungi; Approved Standard”. This includes testing in RPMI-1640 with glutamine and without bicarbonate, an inoculum size of 0.5-2.5×10^3 for yeasts or […] for moulds, and incubation at 35° C. for 24 and 48 hours. […] Drug concentrations were 0.125-64 μg/ml. A 10 mg portion of each powder was weighed out and added to 1 ml of 100% DMSO for compound 205. The resulting concentration of […] was diluted to a working concentration of 6400 μg/ml for compound 205 in 100% DMSO. All subsequent dilutions were also made using the respective diluents. Final testing concentrations ranged from 0.125-64 μg/ml. The NCCLS recommended medium RPMI-1640 (Hardy Diagnostics, Santa Monica, Calif.) was utilized as the test medium. All isolates in this study were clinical isolates received in the Fungus Testing Laboratory for standard antifungal susceptibility testing and/or identification. Isolates, which were not sent for identification, were confirmed to assure testing integrity. A total of 23 were tested to include 3 Candida albicans, 3 Candida glabrata, 3 Cryptococcus neoformans, 3 Aspergillus fumigatus, 3 Rhizopus oryzae, 3, Fusarium solani, 3 Pseudallescheria boydii, and 2 […]. Minimum inhibitory concentrations (MIC) were determined at the first 24-hour interval where growth could be determined in the drug-free control tube.
# R. arrhizus = experiment: Broth dilution antifungal susceptibility testing, R. arrhizus; format: cell-based, Rhizopus oryzae; conditions: 80% inhibition; for MIC: Rhizopus arrhizus, read-out: minimum inhibitory concentration (MIC)
# Method: as §1
# C. glabrata = experiment: Broth dilution antifungal susceptibility testing, C. glabrata; format: cell-based, Candida glabrata; conditions: 50% reduction in turbidity; for MIC: Nakaseomyces glabratus, read-out: minimum inhibitory concentration (MIC)
# Method: as §1
# C. albicans = experiment: Broth dilution antifungal susceptibility testing, C. albicans; format: cell-based, Candida albicans; conditions: 50% reduction in turbidity; for MIC: Candida albicans, read-out: minimum inhibitory concentration (MIC)
# Method: as §1
# C. neoformans = experiment: Broth dilution antifungal susceptibility testing, C. neoformans; format: cell-based; conditions: Cryptococcus neoformans, 50% reduction in turbidity, read-out: minimum inhibitory concentration (MIC)
# Method: as §1
# S. apiospermum = experiment: Broth dilution antifungal susceptibility testing, S. apiospermum; format: cell-based, Pseudallescheria boydii; conditions: 80% inhibition; for MIC: Scedosporium apiospermum, read-out: minimum inhibitory concentration (MIC)
# Method: as §1
# CP Control = experiment: Broth dilution antifungal susceptibility testing, CP Control; format: cell-based; conditions: read-out: minimum inhibitory concentration (MIC)
# Method: as §1
# A. fumigatus = experiment: Broth dilution antifungal susceptibility testing, A. fumigatus; format: cell-based, Aspergillus fumigatus; conditions: 80% inhibition; for MIC: Aspergillus fumigatus, read-out: minimum inhibitory concentration (MIC)
# Method: as §1
# F. solani = experiment: Broth dilution antifungal susceptibility testing, F. solani; format: cell-based; conditions: Fusarium solani, 80% inhibition, read-out: minimum inhibitory concentration (MIC)
# Method: as §1
# cell line U-87 = experiment: Activity against the cell line U-87; format: cell-based, human; conditions: potency on an equimolar basis
# [1] = 24 h, isolate 07-1743, 24 hours
# [2] = 24 h, isolate 07-2055, 24 hours
# [3] = 48 h, isolate 07-1743, 48 hours
# [4] = 48 h, isolate 07-2055, 48 hours
# [5] = 24 h, isolate 07-2044, 24 hours
# [6] = 24 h, isolate 07-2078, 24 hours
# [7] = 48 h, isolate 07-2044, 48 hours
# [8] = 48 h, isolate 07-2078, 48 hours
# [9] = 24 h, isolate 07-2964, 24 hours
# [10] = 24 h, isolate 07-2965, 24 hours
# [11] = 24 h, isolate 07-3013, 24 hours
# [12] = 48 h, isolate 07-2964, 48 hours
# [13] = 48 h, isolate 07-2965, 48 hours
# [14] = 48 h, isolate 07-3013, 48 hours
# [15] = 24 h, isolate 07-3006, 24 hours
# [16] = 24 h, isolate 07-3011, 24 hours
# [17] = 24 h, isolate 07-3012, 24 hours
# [18] = 48 h, isolate 07-3006, 48 hours
# [19] = 48 h, isolate 07-3011, 48 hours
# [20] = 48 h, isolate 07-3012, 48 hours
# [21] = 24 h, isolate 07-2665, 24 hours
# [22] = 24 h, isolate 07-2737, 24 hours
# [23] = 24 h, isolate 07-2829, 24 hours
# [24] = 48 h, isolate 07-2737, 48 hours
# [25] = 48 h, isolate 07-2829, 48 hours
# [26] = 24 h, isolate 07-1333, 24 hours
# [27] = 24 h, isolate 07-1502, 24 hours
# [28] = 48 h, isolate 07-1333, 48 hours
# [29] = 48 h, isolate 07-1502, 48 hours
# [30] = 24 h, isolate 06-4126, 24 hours
# [31] = 24 h, isolate 07-2039, 24 hours
# [32] = 48 h, isolate 07-2039, 48 hours
# [33] = 48 h, isolate 07-1755, 48 hours
# [34] = 48 h, isolate 07-1867, 48 hours
structure (smiles),measurement,setting,value
"O=C(NCCCCCCNC(=O)c1ccccc1S)c1ccccc1S [Compound 204, Bis-1,6-(2-mercaptobenzoylamino)hexane]",MIC,T. rubrum; [1],1 µg/mL
same,MIC,T. rubrum; [2],1 µg/mL
same,MIC,T. rubrum; [3],1 µg/mL
same,MIC,T. rubrum; [4],1 µg/mL
same,MIC,"R. arrhizus; 24 h, isolate 07-1870, 24 hours",> 64 µg/mL
same,MIC,R. arrhizus; [5],> 64 µg/mL
same,MIC,R. arrhizus; [6],> 64 µg/mL
same,MIC,"R. arrhizus; 48 h, isolate 07-1870, 48 hours",> 64 µg/mL
same,MIC,R. arrhizus; [7],> 64 µg/mL
same,MIC,R. arrhizus; [8],> 64 µg/mL
same,MIC,C. glabrata; [9],> 64 µg/mL
same,MIC,C. glabrata; [10],> 64 µg/mL
same,MIC,C. glabrata; [11],> 64 µg/mL
same,MIC,C. glabrata; [12],> 64 µg/mL
same,MIC,C. glabrata; [13],> 64 µg/mL
same,MIC,C. glabrata; [14],> 64 µg/mL
same,MIC,C. albicans; [15],> 64 µg/mL
same,MIC,C. albicans; [16],> 64 µg/mL
same,MIC,C. albicans; [17],> 64 µg/mL
same,MIC,C. albicans; [18],> 64 µg/mL
same,MIC,C. albicans; [19],> 64 µg/mL
same,MIC,C. albicans; [20],> 64 µg/mL
same,MIC,C. neoformans; [21],4 µg/mL
same,MIC,C. neoformans; [22],> 64 µg/mL
same,MIC,C. neoformans; [23],> 64 µg/mL
same,MIC,"C. neoformans; 48 h, isolate 07-2665, 48 hours",4 µg/mL
same,MIC,C. neoformans; [24],> 64 µg/mL
same,MIC,C. neoformans; [25],> 64 µg/mL
same,MIC,S. apiospermum; [26],0.5 µg/mL
same,MIC,S. apiospermum; [27],2 µg/mL
same,MIC,"S. apiospermum; 24 h, isolate 07-1601, 24 hours",< 0.125 µg/mL
same,MIC,S. apiospermum; [28],1 µg/mL
same,MIC,S. apiospermum; [29],2 µg/mL
same,MIC,"S. apiospermum; 48 h, isolate 07-1601, 48 hours",0.5 µg/mL
same,MIC,CP Control; 24 hours,8 µg/mL
same,MIC,CP Control; 48 hours,> 64 µg/mL
same,MIC,"A. fumigatus; 24 h, isolate 05-388, 24 hours",2 µg/mL
same,MIC,A. fumigatus; [30],1 µg/mL
same,MIC,A. fumigatus; [31],1 µg/mL
same,MIC,"A. fumigatus; 48 h, isolate 05-388, 48 hours",> 64 µg/mL
same,MIC,"A. fumigatus; 48 h, isolate 06-4126, 48 hours",> 64 µg/mL
same,MIC,A. fumigatus; [32],> 64 µg/mL
same,MIC,"F. solani; 24 h, isolate 07-1399, 24 hours",> 64 µg/mL
same,MIC,"F. solani; 24 h, isolate 07-1755, 24 hours",> 64 µg/mL
same,MIC,"F. solani; 24 h, isolate 07-1867, 24 hours",> 64 µg/mL
same,MIC,"F. solani; 48 h, isolate 07-1399, 48 hours",> 64 µg/mL
same,MIC,F. solani; [33],> 64 µg/mL
same,MIC,F. solani; [34],> 64 µg/mL
"O=C(CCCCCNC(=O)c1ccccc1S)Nc1ccccc1 [Compound 201, 2-mercapto-N-[5-(phenylcarbamoyl)pentyl]benzamide]",MIC,T. rubrum; [1],2 µg/mL
same,MIC,T. rubrum; [2],2 µg/mL
same,MIC,T. rubrum; [3],2 µg/mL
same,MIC,T. rubrum; [4],2 µg/mL
same,minimum inhibitory concentration (MIC),"T. rubrum; isolate 07-1743, 24 hours",1 µg/mL
same,minimum inhibitory concentration (MIC),"T. rubrum; isolate 07-1743, 48 hours",1 µg/mL
same,minimum inhibitory concentration (MIC),"T. rubrum; isolate 07-2055, 24 hours",1 µg/mL
same,minimum inhibitory concentration (MIC),"T. rubrum; isolate 07-2055, 48 hours",1 µg/mL
same,activity against the cell line U-87,cell line U-87,most potent on an equimolar basis
same,MIC,R. arrhizus; [5],8 µg/mL
same,MIC,R. arrhizus; [6],> 64 µg/mL
same,MIC,R. arrhizus; [7],> 64 µg/mL
same,MIC,R. arrhizus; [8],> 64 µg/mL
same,minimum inhibitory concentration (MIC),"R. arrhizus; isolate 07-2044, 24 hours",4 µg/mL
same,MIC,C. glabrata; [9],2 µg/mL
same,MIC,C. glabrata; [10],1 µg/mL
same,MIC,C. glabrata; [11],2 µg/mL
same,MIC,C. glabrata; [12],> 64 µg/mL
same,MIC,C. glabrata; [13],> 64 µg/mL
same,MIC,C. glabrata; [14],> 64 µg/mL
same,minimum inhibitory concentration (MIC),"C. glabrata; isolate 07-2964, 24 hours",4 µg/mL
same,minimum inhibitory concentration (MIC),"C. glabrata; isolate 07-2965, 24 hours",2 µg/mL
same,MIC,C. albicans; [15],8 µg/mL
same,MIC,C. albicans; [16],4 µg/mL
same,MIC,C. albicans; [17],4 µg/mL
same,MIC,C. albicans; [18],> 64 µg/mL
same,MIC,C. albicans; [19],> 64 µg/mL
same,MIC,C. albicans; [20],> 64 µg/mL
same,minimum inhibitory concentration (MIC),"C. albicans; isolate 07-3006, 24 hours",4 µg/mL
same,minimum inhibitory concentration (MIC),"C. albicans; isolate 07-3011, 24 hours",8 µg/mL
same,minimum inhibitory concentration (MIC),"C. albicans; isolate 07-3012, 24 hours",8 µg/mL
same,MIC,C. neoformans; [21],2 µg/mL
same,MIC,C. neoformans; [22],2 µg/mL
same,MIC,C. neoformans; [23],2 µg/mL
same,MIC,C. neoformans; [24],4 µg/mL
same,MIC,C. neoformans; [25],2 µg/mL
same,MIC,S. apiospermum; [26],1 µg/mL
same,MIC,S. apiospermum; [27],2 µg/mL
same,MIC,S. apiospermum; [28],1 µg/mL
same,MIC,S. apiospermum; [29],4 µg/mL
same,minimum inhibitory concentration (MIC),"S. apiospermum; isolate 07-1333, 24 hours",2 µg/mL
same,minimum inhibitory concentration (MIC),"S. apiospermum; isolate 07-1333, 48 hours",2 µg/mL
same,minimum inhibitory concentration (MIC),"S. apiospermum; isolate 07-1502, 48 hours",2 µg/mL
same,MIC,CP Control; 24 hours,8 µg/mL
same,MIC,CP Control; 48 hours,> 64 µg/mL
same,MIC,"A. fumigatus; 24 h, isolate 05-388, 24 hours",1 µg/mL
same,MIC,A. fumigatus; [30],0.5 µg/mL
same,MIC,A. fumigatus; [31],1 µg/mL
same,MIC,"A. fumigatus; 48 h, isolate 05-388, 48 hours",> 64 µg/mL
same,MIC,A. fumigatus; [32],> 64 µg/mL
same,minimum inhibitory concentration (MIC),"A. fumigatus; isolate 06-4126, 24 hours",1 µg/mL
same,MIC,F. solani; [33],> 64 µg/mL
same,MIC,F. solani; [34],> 64 µg/mL
